Data on ten molecules can be found in ChEMBL document CHEMBL1201862, “PubChem BioAssay data set” (2004).

Among the test systems are DLD-1; HCC 2998; HCT-116; HL-60; K562; MOLT-4; NCI-H460; OVCAR-5; OVCAR-8; SK-OV-3; SN12C; SR; U-251; UO-31.
Common to all, as to test: NCI-60 cell line screen, 48 h

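Grown in 96-well plates, cells were treated for 48 hours with each compound at five concentrations. Insufficient inhibition: endpoint recorded as highest concentration tested. GI50: concentration for 50% inhibition of growth.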 Calls of active or inactive are those of the source. Rule as the data show it: active = GI50 up to about 1.1 µM and inactive = higher.

Consider `CNC(N)NC`, for which the GI50 in the assay on DLD-1, with HCC 2998, in the assay with HCT-116, with HL-60, in the assay on K562 and in the assay with MOLT-4 was > 100 µM (inactive) in each case. The GI50 in the assay on NCI-H460, in the assay with OVCAR-5, in the assay on OVCAR-8, in the assay on SK-OV-3, with SN12C and in the assay with SR was > 100 µM (inactive) each time. The GI50 with U-251 and with UO-31 was > 100 µM (inactive) throughout.

Regarding `O=S(=O)(c1ccccc1)C1CN2OC1(S(=O)(=O)c1ccccc1)CC21CCCCC1` (configuration not stated), the GI50 in the assay on DLD-1 was > 100 µM (inactive); with HCC 2998 it was > 100 µM (inactive); in the assay on HCT-116, > 100 µM (inactive); in the assay with HL-60, 44.9 µM (inactive); with K562, 85.9 µM (inactive); in the assay on MOLT-4, 40.7 µM (inactive). The GI50 was 92.5 µM (inactive) with NCI-H460; > 100 µM (inactive) in the assay with OVCAR-5; > 100 µM (inactive) in the assay with OVCAR-8; > 100 µM (inactive) in the assay with SK-OV-3; > 100 µM (inactive) in the assay with SN12C; 52.6 µM (inactive) with SR. Moreover, the GI50 in the assay on U-251 was > 100 µM (inactive); in the assay on UO-31, 42.9 µM (inactive).

As to `COc1ccc(/C=C/C(=O)c2sc(-n3nc(-c4ccccc4)cc3-c3ccccc3)nc2C)cc1OC`, the GI50 is 21.8 µM (inactive) in the assay on DLD-1; 51.1 µM (inactive) in the assay on HCC 2998; 31.3 µM (inactive) in the assay on HCT-116; 25.2 µM (inactive) in the assay with HL-60; 23.6 µM (inactive) in the assay on K562; 20.3 µM (inactive) in the assay with MOLT-4. Besides, the GI50 is 56.8 µM (inactive) in the assay on NCI-H460; 32.1 µM (inactive) in the assay with OVCAR-5; 31.4 µM (inactive) in the assay on OVCAR-8; > 100 µM (inactive) in the assay with SK-OV-3; 31.6 µM (inactive) in the assay on SN12C; 24.9 µM (inactive) in the assay on SR. Further, the GI50 with U-251 was 28.8 µM (inactive); in the assay with UO-31 it was 42 µM (inactive).

For `COc1ccc2c(c1)CCC(OS(=O)(=O)CC13CCC(CC1=O)C3(C)C)C2=O` (configuration not stated), the GI50 with DLD-1 is 31.3 µM (inactive); with HCC 2998 it was 23 µM (inactive); in the assay on HCT-116, 24.3 µM (inactive); in the assay on HL-60, 18.5 µM (inactive); with K562, 24.3 µM (inactive); in the assay on MOLT-4, 20.8 µM (inactive). Moreover, the GI50 was 18.1 µM (inactive) with NCI-H460; 37.2 µM (inactive) with OVCAR-5; 18.7 µM (inactive) in the assay with OVCAR-8; 19 µM (inactive) with SN12C; 24.9 µM (inactive) with SR; 21.9 µM (inactive) in the assay on U-251. Also, in the assay with UO-31, the GI50 was 35.6 µM (inactive).

In the case of `COc1ccccc1NC(=O)CC(=O)n1nc(C)c(/N=N/c2ccccc2F)c1C`, the GI50 with DLD-1 is > 100 µM (inactive); in the assay with HCC 2998, > 100 µM (inactive); in the assay with HCT-116, > 31.6 µM (inactive); with HL-60 it was > 100 µM (inactive); in the assay with K562, > 31.6 µM (inactive); in the assay with MOLT-4, > 31.6 µM (inactive). Further, the GI50 with NCI-H460 was > 100 µM (inactive); in the assay on OVCAR-5 it was > 100 µM (inactive); with OVCAR-8, 44.6 µM (inactive); in the assay on SK-OV-3, 31.3 µM (inactive); in the assay on SN12C it was > 100 µM (inactive); in the assay with SR, 71.8 µM (inactive). Further, the GI50 is 58.6 µM (inactive) in the assay with U-251 and > 100 µM (inactive) in the assay on UO-31.

In the case of `COc1cc2c(cc1OC)C(CC(=O)NN=C(C)C)NCC2` (configuration not stated), the GI50 in the assay with DLD-1, with HCC 2998, in the assay with HCT-116, in the assay on HL-60, in the assay on K562 and with MOLT-4 was > 100 µM (inactive) each time. In addition, the GI50 in the assay on NCI-H460, in the assay on OVCAR-5, in the assay with OVCAR-8, with SK-OV-3, in the assay with SN12C and with SR was > 100 µM (inactive) throughout. For the same molecule, the GI50 with U-251 and in the assay with UO-31 was > 100 µM (inactive) throughout.

Consider `Nc1ccccc1C(=O)C(Br)C(Br)c1ccc2c(c1)OCO2` (configuration not stated), for which the GI50 is 33.6 µM (inactive) in the assay on DLD-1; 20.3 µM (inactive) with HCC 2998; 16.4 µM (inactive) in the assay on HCT-116; 40.7 µM (inactive) in the assay on HL-60; 31.1 µM (inactive) in the assay on K562; 25.1 µM (inactive) with MOLT-4. Also, the GI50 in the assay on NCI-H460 is 18.6 µM (inactive); in the assay on OVCAR-8, 27.6 µM (inactive); in the assay with SK-OV-3 it was 28.6 µM (inactive); in the assay on SN12C, 24.9 µM (inactive); in the assay on SR, 46.1 µM (inactive); in the assay on U-251, 21.6 µM (inactive). Besides, the GI50 in the assay with UO-31 was 15.5 µM (inactive).

Take `CC1=C2C(=O)C(C)(C)C=C2C(=O)[C@](C)(O)C12CC2` [DEHYDROILLUDIN M]: the GI50 in the assay on DLD-1 is > 0.791 µM (active); with HCC 2998 it was > 0.815 µM (active); with HCT-116, 0.265 µM (active); in the assay on HL-60, 0.247 µM (active); in the assay with K562 it was > 1 µM (active); in the assay with MOLT-4 it was > 1 µM (active). For the same molecule, the GI50 is 0.23 µM (active) with NCI-H460; > 1 µM (active) in the assay on OVCAR-5; 0.56 µM (active) in the assay on OVCAR-8; > 1 µM (active) in the assay on SK-OV-3; > 1 µM (active) with SN12C; 0.61 µM (active) in the assay with SR. In addition, the GI50 in the assay on U-251 is 0.484 µM (active); with UO-31 it was > 1 µM (active).

For the molecule `N#CCCN(CCC#N)c1ccc(/C=C(/NC(=O)c2cc([N+](=O)[O-])ccc2Cl)C(=O)N=[N+]=[N-])cc1`, the GI50 in the assay with DLD-1, with HCC 2998, with HCT-116, in the assay on HL-60, in the assay on K562 and in the assay on MOLT-4 was > 100 µM (inactive) throughout. Also, the GI50 with NCI-H460, with OVCAR-5, in the assay on OVCAR-8, in the assay with SK-OV-3, in the assay with SN12C and in the assay on SR was > 100 µM (inactive) in each case. The GI50 in the assay with U-251 and in the assay on UO-31 was > 100 µM (inactive) in each case.

In the case of `COc1cc2cc3c4c(cc(OC)c(OC)c4c2cc1OC)CCN3C(=O)OCCBr`, the GI50 with DLD-1 was 45.5 µM (inactive); in the assay on HCC 2998, 42.3 µM (inactive); in the assay with HCT-116 it was 50.9 µM (inactive); in the assay with HL-60, 39.1 µM (inactive); in the assay on MOLT-4, 27.8 µM (inactive); in the assay with NCI-H460, 33.2 µM (inactive). The GI50 in the assay with OVCAR-5 was > 100 µM (inactive); in the assay on OVCAR-8, > 100 µM (inactive); in the assay with SK-OV-3, > 100 µM (inactive); in the assay on SN12C it was 45 µM (inactive); with SR, 18.7 µM (inactive); with U-251, > 100 µM (inactive). For the same molecule, in the assay with UO-31, the GI50 is > 100 µM (inactive).
